# Biological target: Queuine tRNA-ribosyltransferase (Zymomonas mobilis subsp. mobilis (strain ATCC 31821 / ZM4 / CP4), UniProt P28720)
# Assay: Enzyme Assay
# Conditions: pH 7.3
# Description: Inhibition assay using tRNA-guanine transglycosylase (TGT).
# Sequence of Queuine tRNA-ribosyltransferase (P28720 whole entry): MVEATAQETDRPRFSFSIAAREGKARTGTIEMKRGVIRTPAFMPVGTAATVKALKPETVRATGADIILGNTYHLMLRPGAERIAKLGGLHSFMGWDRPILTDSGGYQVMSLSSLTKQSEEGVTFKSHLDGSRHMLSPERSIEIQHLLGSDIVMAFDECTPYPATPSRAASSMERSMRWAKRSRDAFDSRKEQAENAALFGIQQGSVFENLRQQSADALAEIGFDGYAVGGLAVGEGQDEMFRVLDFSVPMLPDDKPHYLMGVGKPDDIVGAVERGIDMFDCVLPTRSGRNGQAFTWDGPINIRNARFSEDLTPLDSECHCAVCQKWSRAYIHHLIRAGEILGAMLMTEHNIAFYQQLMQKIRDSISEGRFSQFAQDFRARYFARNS
row,Ki [nM],SMILES
1,31000,"CN(C)c1ccc2c(=O)[nH]c(N)nc2c1 [Quinazolinone scaffold, 1]"
2,7600,"CN(Cc1ccccc1)c1ccc2c(=O)[nH]c(N)nc2c1 [Quinazolinone scaffold, 2]"
3,4100,"Nc1nc2cc3nc[nH]c3cc2c(=O)[nH]1 [lin-benzoguanine scaffold, 3]"
4,1500,"Cc1nc2cc3nc(N)[nH]c(=O)c3cc2[nH]1 [lin-benzoguanine scaffold, 4]"
5,77,"Nc1nc2cc3nc(N)[nH]c3cc2c(=O)[nH]1 [lin-benzoguanine scaffold, 5]"
6,5.8,"CNc1nc2cc3c(=O)[nH]c(N)nc3cc2[nH]1 [lin-benzoguanine scaffold, 6]"
7,3.5,"Nc1nc2cc3nc(NCc4cccs4)[nH]c3cc2c(=O)[nH]1 [lin-benzoguanine scaffold, 7]"
8,5.5,"Nc1nc2cc3nc(NCc4cccc5ccccc45)[nH]c3cc2c(=O)[nH]1 [lin-benzoguanine scaffold, 8]"
9,6,"Nc1nc2cc3[nH]c(NCCN4CCOCC4)nc3cc2c(=O)[nH]1 [lin-benzoguanine scaffold, 9]"
10,10,"Nc1nc2cc3nc(NCCc4ccccc4)[nH]c3cc2c(=O)[nH]1 [lin-benzoguanine scaffold, 10]"
